The source of these data is patent publication EP0317728A2, “Use of 9-(beta-D-arabinofuranosyl) adenine derivatives for the preparation of pharmaceutical compositions for the treatment of aids” (WARNER-LAMBERT COMPANY, priority 1987, dated 1989).

Holding throughout (format): cell-based
The subject of series [1] is uninfected H9 cells. To be noted: human, 6 day. As to the method: (§1) The antiviral activity of the compounds of the present invention against the HTLV-III/LAV virus was evaluated by determining the degree of inhibition of cytopathic effect (CPE) and reverse transcriptase (RT) activity of the drug in a subline of H9 cells at various concentrations.
Series [2] has as its system HTLV-III/LAV. Kind of series: Inhibition of cytopathic effect (syncytial giant cell formation) in HTLV-III/LAV infected H9 cells. The conditions noted are these: cytopathic effect (syncytial giant cell formation) on day 7 post infection 50% that in drug-free control cultures, read-out: CPE* 50% Inhibitory Concentrations. The protocol: as §1
(§2) HTLV-III/LAV inoculum was standardized for reverse transcriptase (RT) activity using purified avian myeloblastosis viral RT (BRL Labs, Gaithersberg, MD) and used to infect polybrene treated H9 cells at 0.02 RT units of HTLV-III/LAV per 2 x 10⁶ cells. The virus was adsorbed for two hours at 37°C and then the cells were washed and resuspended in RPMI-10% fetal bovine serum at 2 x 10⁵ cells/ml and dispersed in 1-ml aliquots into 24-well plates.
Syncytial giant cell formation appeared at 5-6 days post infection, and this cytopathic effect (CPE) was quantitatively measured by dispersing 0.1-ml aliquots into 0.1-ml portions of absolute methanol and enumerating the giant cells microscopically. The inhibition of cytopathic effect by treatment with representative compounds of the present invention is shown in the table, together with the inhibitory effect on reverse transcriptase activity.
A general note: Cytopathic effects are the visible damage that an infection or toxin causes in cultured cells.

Series [3] relates to HTLV-III/LAV. Kind of series: Inhibition of reverse transcriptase activity in culture medium of HTLV-III/LAV infected H9 cells. To be noted: reverse transcriptase in the culture medium on day 10 post infection 50% that in drug-free control cultures, read-out: RT** 50% Inhibitory Concentrations. The protocol: as §1, §2
Reverse transcriptase activity (RT) was measured using 1-ml culture aliquots which were clarified at 600 xg for 30 minutes, precipitated in 10% polyethylene glycol-0.13 M NaCl at 4°C for eighteen hours, and centrifuged at 600 xg for sixty minutes. The pellet was dissolved in glycerol-Tris buffer (50% glycerol, 25 mM Tris HCl, pH 7.5, 5 mM dithiothreitol, 15 mM KCl, 0.025% Triton-X, and 0.25 mM EDTA). […] Background counts were determined using poly dA oligo dT₁₂₋₁₈ as template and subtracted from the poly rA dT primer to determine the thymidine incorporation specifically due to reverse transcriptase activity. […]

As for `Nc1ncnc2c1ncn2[C@@H]1O[C@H](CO)[C@@H](O)[C@@H]1O` [9-(β-D-arabinofuranosyl)adenine], the “Cell Number*** 50% Inhibitory Concentrations” value in series [1] is >100 µM. For the same compound, the IC50 was 7 µM in series [2] (Human immunodeficiency virus 1, 168 h) and 7 µM in series [3] (Human immunodeficiency virus 1, 240 h).

For `Nc1ncnc2c1ncn2[C@@H]1O[C@H](COP(=O)(O)O)[C@@H](O)[C@@H]1O` [9-(β-D-arabinofuranosyl)adenine, 5′-phosphate], the IC50 in series [2] came to 18 µM; in series [3] it was 11 µM.
